In US9222137B2, “Method for monitoring minimal residual hairy cell leukemia” (Trovagene, Inc., priority 2011, dated 2015):
“Also recorded” adds a separate entry of the source.

Experiments:
[1] = test system: phosphorylated MEK and ERK in purified primary HCL cells (BRAF V600E); assay: Western blot analysis of MEK and ERK phosphorylation in purified HCL cells incubated in vitro with BRAF inhibitor; assay type: cell-based, human; conditions: primary leukemic HCL cells; 250 nM, 500 nM or 1000 nM (≦1 μM); 2, 6 and 24 h incubation; vs vehicle (DMSO)
Protocol: Fresh leukemic cells purified from the peripheral blood of 5 patients with HCL were seeded in triplicate (2 to 3×10^5 cells/well, depending on the patient) in 96-well flat-bottom plates, and left recovering by overnight incubation at 37° C. and 5% CO2 in cell culture medium (RPMI1640 with 10% fetal bovine serum, glutamine and antibiotics). […] DMSO (the drug vehicle) was added in parallel wells as control. Cells were then harvested at different time points (2 h, 6 h and 24 h), washed 3 times in PBS, lysed in Laemmli sample buffer and boiled at 95° C. for 5 minutes. […] Protein lysates (6 to 7.5×10^4 fresh cell equivalent, depending on the patient; 2×10^5 frozen cell equivalent) were separated by SDS-polyacrylamide gel electrophoresis (SDS-PAGE) on pre-cast electrophoresis gels (12% Resolving gel cat. 456-1043 or Any kD Resolving Gel cat. 456-9036, Biorad), transferred to a 0.45 um pore size nitrocellulose transfer membrane (Whatman GmbH, Dassel, Germany), and probed with specific primary antibodies directly or after stripping (with Restore Western Blot Stripping Buffer, Pierce/Thermo Scientific cat. 21059). The anti-phospho-ERK1/2 (clone D13.14.4E; 1:2000 dilution), anti-phospho-MEK1/2 (clone 166F8; 1:1000 dilution), anti-ERK1/2 (clone 137F5; 1:1000 dilution) rabbit monoclonal antibodies and the anti-MEK1/2 (clone L38C12; 1:1000 dilution) mouse monoclonal antibody were all from Cell Signaling Technology. Upon incubation with horseradish peroxidase-conjugated secondary antibodies (GE Healthcare Lifesciences, Uppsala, Sweden), polypeptides were visualized using an enhanced chemiluminescence (ECL) western blot detection kit according to the manufacturer's instruction (GE Healthcare Lifesciences). Protein lysates (3×10^4 to 2×10^5 cell equivalent, depending on the experiment) from either serum-starved (45 min at 37° C. and 5% CO2 in RPMI1640) or unstarved human leukemic T-cell line Jurkat cells were used as negative and positive control, respectively, for ERK1/2 and MEK1/2 phosphorylation.
Membranes were probed with antibodies against phospho-ERK, phosphoMEK, total ERK and total MEK, as indicated on the far right. Protein lysates from either serum-starved or unstarved human leukemic Jurkat T cell line cells were used as negative (−) and positive (+) control, respectively, for ERK and MEK phosphorylation.

hairy cell leukemia = assay: Case report: index HCL patient treated with pentostatin; assay type: in vivo, human
Description: Splenomegaly was present. […] At immunohistochemistry, leukemic cells were positive for CD20, DBA44, CD68 and Annexin-A1; expression of CD20, CD11c, CD25 and CD103 was documented by flow cytometry.

SMILES | phosphorylation of ERK (phospho-ERK, Western blot) [1] | phosphorylation of MEK (phospho-MEK, Western blot) [1] | clinical outcome after therapy (hairy cell leukemia)
CCCS(=O)(=O)Nc1ccc(F)c(C(=O)c2c[nH]c3ncc(Cl)cc23)c1F [PLX-4720] | dose-dependent dephosphorylation; also recorded: marked decrease | dose-dependent dephosphorylation; also recorded: marked decrease | –
OC[C@H]1O[C@@H](n2cnc3c2NC=NC[C@H]3O)C[C@@H]1O [pentostatin] | – | – | complete hematological remission
